Results as given in patent EP0016746A1, “New therapeutically active spirocycloalkylamines and pharmaceutical preparations comprising such compounds” (priority 1979, dated 1980).

Tests used:
[1] = test system: central dopamine (DA) receptors; experiment: Blockade of apomorphine induced stereotypies and hyperactivity in rats; format: in vivo, Male Sprague-Dawley rats; conditions: for ED50 Hyper-activity / ED50 Stereo-typies: i.p. 60 min prior to apomorphine hydrochloride 1 mg/kg s.c.; for ED50 Hyper-activity: dose reducing number of animals showing hyperactivity by 50% over 60 min observation; for ED50 Stereo-typies: dose reducing strength of stereotypies by 50% over 60 min observation
From the text: The DA receptor blockade as measured by different in vitro anc in vivo techniques correlate roughly with the antipsychotic efficacy. The blockade of the behavioural effects induced by the DA receptor agonist apomorphine is highly correlated to the antipsychotic effect of various neuroleptics. The ability of potential neuroleptics to block the apomorphine induced behaviours may thus be a valuable predictor of the anti- psychotic efficacy in man.
Male Sprague-Dawley rats, weighing 250-300 g, were used. […] The compounds were injected intraperitoneally 60 min. prior to apomorphine hydrochloride (1 mg/kg dissolved in saline), which was injected subcutaneously into the neck. […] Directly after the injection the animals were placed in the cages, one in each cage. Scoring of the stereotypies was performed by a modified version (Fuxe et al. in Rhinencephale Neurotransmetteurs et Psychoses, by G. Masson, Paris 1977, p. 253) of the system introduced by Costall and Naylor (Eur. J. Pharmacol. 24 8 (1973).
The number of animals, displaying hyperactivity caused by apomorphine, was scored. Each group consisted of 6-8 animals. Saline controls were always run simultaneously. The EO50's for stereotypies are the doses which reduce the strength of the stereotypies by 50% over the observation period of 60 min. The Ed50's for hyperactivity are the doses which reduce the number of animals showing hyperactivity by 50% over the observation period of 60 min. EO50's were calculated from log dose-curves from 4-6 levels with 6-8 animals per dose level. The test compounds were dissolved in saline or water.

[2] = Heart effects: arterial blood pressure, heart rate and electrocardiograms after consecutive increasing intravenous doses in restrained rats; format: in vivo, Male Sprauge-Dawley rats; conditions: for Minimum doses causing changes in: Cardiogram intervals PR / Minimum doses causing changes in: Cardiogram intervals QRS / Minimum doses causing changes in: Cardiogram intervals QT / Minimum doses causing changes in: Heart rate (Decrease) / Minimum doses causing changes in: Mean arterial blood pressure (Decrease): change of more than 15% from values before administration
Procedure: Male Sprauge-Dawley rats weighing 290-360 grams were used. The animals were prepared for recording the arterial blood pressure through a catheter implanted into the abdominal aorta and for injection of drugs through a catheter implanted into the abdominal vena cava. Both catheters were exteriorized at the base of the neck. At least five days were allowed for recovery after the operation.
The animals were kept immobilized in restraining cages during the experiment. The arterial blood pressure was continuously monitored on a Grass Model 7 Polygraph via a Statham P23Gc transducer. Electrocardiograms were taken from subcutaneously placed thin needle electrodes and recorded on a Mingograph 34 (Elema-Schänander AB, Sweden).
Groups of rats were given consecutive increasing intravenous doses of the test compounds from the dose scale: 0.25, 0.5, 1, 2, 4, 8, 16, 32 and 64 […]. The test compounds were injected over a period of 30 seconds at an interval of five minutes at doses of 0.25-8 […] and with an interval of 15 minutes at higher dose ranges.
The minimum doses that caused changes in mean arterial blood pressure, heart rate, PR, QRS and QT intervals of more than 15% from values before administration were arbitrarily defined as a drug effect.

[3] = i.p., rats, comparison in words

Row | Compound | ED50 Hyper-activity [1] [µmol/kg] | ED50 Stereo-typies [1] [µmol/kg] | activity against apomorphine induced behaviours (in words) ([1]; i.p., rats, summary of Table 1) | Minimum doses causing arrhythmias (Second degree AV-block) [2] [µmol/kg] | Minimum doses causing changes in: Cardiogram intervals PR [2] [µmol/kg] | Minimum doses causing changes in: Cardiogram intervals QRS [2] [µmol/kg] | Minimum doses causing changes in: Cardiogram intervals QT [2] [µmol/kg] | Minimum doses causing changes in: Heart rate (Decrease) [2] [µmol/kg] | Minimum doses causing changes in: Mean arterial blood pressure (Decrease) [2] [µmol/kg] | potency to block apomorphine induced hyperactivity compared with clozapine [1, 3] | potency to block the stereotypies compared with clozapine [1, 3]
1 | CN1CCN(C2=Nc3cc(Cl)ccc3Nc3ccccc32)CC1 [Clozapine, reference compound] | 26 | 104 |  |  |  |  |  |  |  |  | 
2 | CNC1C=CC2(CC1)c1ccccc1CCc1ccc(Cl)cc12 (stereo not shown) [Example 3, 3-Chloro-10,11-dihydro-N-methylspiro-[5H-dibenzo[a,d]-cyclohBptene-5,1'-cyclohex-2-Bn]-4'-amine] | 15 | 65 | active | 16 | 16 | 8 | 16 | 16 | 8 to 16 |  | 
3 | CN(C)C1C=CC2(CC1)c1ccccc1CCc1ccc(Cl)cc12 (stereo not shown) [-N(CH3)2, reference compound] | 6.4 | 35 |  | 2 to 4 | 2 | >4 | 4 | 2 | 4 |  | 
4 | CN(C)CCCN1c2ccccc2Sc2ccc(Cl)cc21 [Chlorpromazine, reference compound] | 6.2 | 6.2 |  |  |  |  |  |  |  |  | 
5 | OCCN1CCN(C2C=CC3(CC2)c2ccccc2CCc2ccc(Cl)cc23)CC1 (stereo not shown) [Example 4] | 24 | 70 |  | 64 | 32 | 16 | 16 | 16 to 32 | 8 | as potent as clozapine | more potent than clozapine
